Results published in US10450358 (dated 2019).

What was measured:
[1] = Pichia pastoris GS115 expression culture supernatant (methanol induction), purified protein; details: 28° C., up to 72 hours
[2] = Pichia pastoris GS115 expression culture supernatant (BMMY medium, methanol induction), purified protein; details: 28° C., up to 72 hours

cleaved bond [2] | Sequence | not cleaved [1]
 | AIAEPAMIAECKTRTEVFEISRRLIDPTNANFLVWPPCVEVQRCSGCCNNRNVQCRPTQVQLRPVQVRKIEIVRKKPIFKKATVTLEDHLACKCEAVAAARPVA | SDS-PAGE result showed that PDGF-M2 is a single band
 | TIAEPAMIAECKTRTEVFEISRRLIDPTNANFLVWPPCVEVQRCSGCCNNRNVQCRPTQVQLRPVQVRKIEIVRKKPIFKKATVTLEDHLACKCEAVAAARPVA | only single band could be detected after the two mutants were reduced (WB)
Arg32-Thr33 | TIAEPAMIAECKTRTEVFEISRRLIDRTNANFLVWPPCVEVQRCSGCCNNRNVQCRPTQVQLRPVQVRKIEIVRKKPIFKKATVTLEDHLACKCETVAAARPVT | 
